According to patent US11826351B2, “Compounds useful as kinase inhibitors” (Loxo Oncology, Inc., priority 2015, dated 2023):
Where two headings read alike, the source gives them in different places.

Experiments:
[1] = target: T1, Recombinant BTK^WT kinase (Homo sapiens, UniProt Q06187); experiment: BTK WT binding affinity (LanthaScreen TR-FRET); conditions: Kinase Tracer 236, 5 h incubation
T1 construct: purchased Invitrogen
How it was run: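 Tracer-displacement TR-FRET: 2.5 nM recombinant BTK^WT, 2 nM Eu anti-His antibody and 15 nM Kinase Tracer 236 incubated with varying inhibitor concentrations for 5 h in Kinase Buffer A. Signal read at 340 nm excitation, 615/665 nm emission; IC50 from variable-slope log[inhibitor]–response fit.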

[2] = target: T2, Recombinant BTK^C481S kinase (Homo sapiens, UniProt Q06187, C481S); experiment: BTK C481S binding affinity (LanthaScreen TR-FRET); conditions: Kinase Tracer 236, 5 h incubation
T2 construct: purchased SignalChem
How it was run: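 BTK C481S tracer-displacement TR-FRET: 5 nM His-tagged kinase, 2 nM Eu anti-His antibody and 30 nM Kinase Tracer 236 incubated with titrated inhibitor for 5 h in Kinase Buffer A. Read at 340 nm excitation, 615/665 nm emission; IC50 from variable-slope log[inhibitor]–response fit.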

Recombinant EGFR = target: T3, Recombinant EGFR (Homo sapiens, UniProt P00533); experiment: EGFR binding affinity (LanthaScreen TR-FRET); conditions: Kinase Tracer 199, 5 h incubation
T3 construct: purchased Invitrogen
How it was run: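 TR-FRET binding (LanthaScreen) with recombinant EGFR; signal measured across a compound concentration range. IC50 obtained by fitting RFU against log[inhibitor] to a variable-slope model.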

[3] = tested on: OCI-Ly10 human DLBCL cells; experiment: OCI-Ly10 anti-proliferative activity (Resazurin); format: cell-based; conditions: read-out: Proliferation Assay OCI-Ly10-20% FBS
How it was run: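 OCI-Ly10 human DLBCL cells, whose growth depends on NFκB signalling, were seeded at 7.5×10^3 cells per well in 96-well plates with a range of compound concentrations and kept at 37° C for 72 h. Resazurin was then added, and after 5 h fluorescence was read at 590 nm.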

[4] = Homo sapiens, OCI-Ly10, 72 h, OCI-Ly10 cells, 72 h compound treatment, Resazurin
[5] = OCI-Ly10 cells, 72 h compound treatment, Resazurin

T2 sequence (Q06187 whole entry C481S): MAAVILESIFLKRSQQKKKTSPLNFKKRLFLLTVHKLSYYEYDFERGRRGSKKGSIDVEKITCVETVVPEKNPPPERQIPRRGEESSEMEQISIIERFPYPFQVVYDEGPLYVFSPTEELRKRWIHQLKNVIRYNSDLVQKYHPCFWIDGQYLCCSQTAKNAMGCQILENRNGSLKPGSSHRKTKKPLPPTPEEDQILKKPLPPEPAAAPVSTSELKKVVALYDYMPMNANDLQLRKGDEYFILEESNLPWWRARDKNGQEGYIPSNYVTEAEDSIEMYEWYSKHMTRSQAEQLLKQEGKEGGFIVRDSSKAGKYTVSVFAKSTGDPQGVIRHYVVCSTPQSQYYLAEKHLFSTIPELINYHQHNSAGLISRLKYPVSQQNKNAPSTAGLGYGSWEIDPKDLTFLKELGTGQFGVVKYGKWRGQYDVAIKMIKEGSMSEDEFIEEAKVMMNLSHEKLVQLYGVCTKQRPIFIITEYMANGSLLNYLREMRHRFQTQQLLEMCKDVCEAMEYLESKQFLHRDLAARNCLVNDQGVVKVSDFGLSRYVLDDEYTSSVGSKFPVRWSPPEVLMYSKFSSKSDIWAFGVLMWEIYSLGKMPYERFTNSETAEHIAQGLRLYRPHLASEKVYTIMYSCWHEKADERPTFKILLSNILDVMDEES
T1 sequence (Q06187 whole entry): as the sequence (Q06187 whole entry C481S) above, with S481C counted along it
T3 sequence (P00533 25-1210): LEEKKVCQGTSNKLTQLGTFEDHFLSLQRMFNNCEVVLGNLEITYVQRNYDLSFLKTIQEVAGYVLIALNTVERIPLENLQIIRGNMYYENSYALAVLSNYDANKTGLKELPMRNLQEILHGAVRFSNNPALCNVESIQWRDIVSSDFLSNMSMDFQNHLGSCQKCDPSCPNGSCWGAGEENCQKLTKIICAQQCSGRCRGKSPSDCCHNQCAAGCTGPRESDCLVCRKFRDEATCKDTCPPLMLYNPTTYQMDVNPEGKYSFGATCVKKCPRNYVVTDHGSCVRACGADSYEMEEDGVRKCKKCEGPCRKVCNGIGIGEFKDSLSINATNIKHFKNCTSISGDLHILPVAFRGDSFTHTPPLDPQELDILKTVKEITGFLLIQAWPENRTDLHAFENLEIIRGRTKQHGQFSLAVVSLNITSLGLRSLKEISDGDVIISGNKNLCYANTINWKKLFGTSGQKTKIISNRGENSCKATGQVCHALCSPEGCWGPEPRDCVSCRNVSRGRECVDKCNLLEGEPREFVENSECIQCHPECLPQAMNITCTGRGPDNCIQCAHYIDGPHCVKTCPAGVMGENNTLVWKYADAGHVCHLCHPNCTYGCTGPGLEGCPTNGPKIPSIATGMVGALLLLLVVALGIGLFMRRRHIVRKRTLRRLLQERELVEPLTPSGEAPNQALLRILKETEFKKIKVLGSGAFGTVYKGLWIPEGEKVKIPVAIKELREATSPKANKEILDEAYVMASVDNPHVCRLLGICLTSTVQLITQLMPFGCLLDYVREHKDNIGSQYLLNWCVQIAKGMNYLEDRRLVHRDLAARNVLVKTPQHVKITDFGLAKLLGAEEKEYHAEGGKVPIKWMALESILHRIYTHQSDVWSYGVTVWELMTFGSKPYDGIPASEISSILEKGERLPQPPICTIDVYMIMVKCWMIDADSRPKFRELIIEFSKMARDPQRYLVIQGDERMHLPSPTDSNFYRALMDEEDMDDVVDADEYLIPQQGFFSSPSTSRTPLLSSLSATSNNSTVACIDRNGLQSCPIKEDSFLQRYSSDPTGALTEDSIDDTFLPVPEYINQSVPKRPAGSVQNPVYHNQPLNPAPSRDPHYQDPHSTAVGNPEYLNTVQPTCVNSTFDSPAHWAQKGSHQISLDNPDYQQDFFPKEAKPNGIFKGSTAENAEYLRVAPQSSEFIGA

Row | Structure (SMILES) | IC50 [1] | IC50 [2] | IC50 (Recombinant EGFR) | IC50 ([3]; Homo sapiens, OCI-Ly10, 72 h) | IC50 [3, 4] | IC50 [3, 5]
1 | COc1ccc(F)cc1C(=O)NCc1cc(F)c(-c2nn(C(C)C(F)(F)F)c(N)c2C(N)=O)cc1F (centres unmarked) [Example 168, 5-amino-3-[2,5-difluoro-4-[[(5-fluoro-2-methoxy-benzoyl)amino]methyl]phenyl]-1-(2,2,2-trifluoro-1-methyl-ethyl)pyrazole-4-carboxamide] | 10 to 100 nM | < 10 nM | 1000 to 10000 nM | 10 to 100 nM | – | –
2 | COc1ccccc1C(=O)NCc1ccc(-c2nn(-c3cccc(F)c3F)c(N)c2C(N)=O)cc1 [Example 81, 5-amino-1-(2,3-difluorophenyl)-3-[4-[[(2-methoxybenzoyl)amino]methyl]phenyl]pyrazole-4-carboxamide] | < 10 nM | < 10 nM | 100 to 1000 nM | – | 10 to 100 nM | –
3 | COc1ccccc1C(=O)NCc1ccc(-c2nn(-c3ccc(C)cc3)c(N)c2C(N)=O)cc1 [Example 44, 5-amino-3-[4-[[(2-methoxybenzoyl)amino]methyl]phenyl]-1-(p-tolyl)pyrazole-4-carboxamide] | < 10 nM | < 10 nM | 100 to 1000 nM | – | 10 to 100 nM | –
4 | CCC(n1nc(-c2ccc(CNC(=O)c3ccccc3OC)cc2)c(C(N)=O)c1N)C(F)(F)F (centres unmarked) [Example 170, 5-amino-3-[4-[[(2-methoxybenzoyl)amino]methyl]phenyl]-1-[1-(trifluoromethyl)propyl]pyrazole-4-carboxamide] | 10 to 100 nM | < 10 nM | 1000 to 10000 nM | – | 100 to 1000 nM | –
5 | COc1ccc(F)cc1C(=O)NCc1ccc(-c2nn(C(C)C(F)(F)F)c(N)c2C(N)=O)cc1 (centres unmarked) [Example 120, 5-amino-3-[4-[[(5-fluoro-2-methoxy-benzoyl)amino]methyl]phenyl]-1-(2,2,2-trifluoro-1-methyl-ethyl)pyrazole-4-carboxamide] | < 10 nM | < 10 nM | 1000 to 10000 nM | – | 10 to 100 nM | –
6 | COc1ccc(F)cc1C(=O)NCc1ccc(-c2nn(C(CCO)C(F)F)c(N)c2C(N)=O)cc1 (centres unmarked) [Example 193, 5-Amino-1-[1-(difluoromethyl)-3-hydroxy-propyl]-3-[4-[[(5-fluoro-2-methoxy-benzoyl)amino]methyl]phenyl]pyrazole-4-carboxamide] | 10 to 100 nM | < 10 nM | 1000 to 10000 nM | – | 100 to 1000 nM | –
7 | COc1ccc(F)cc1C(=O)NCc1ccc(-c2nn(C(C3CCCC3)C(F)(F)F)c(N)c2C(N)=O)cc1 (centres unmarked) [Example 196, 5-Amino-1-(1-cyclopentyl-2,2,2-trifluoro-ethyl)-3-[4-[[(5-fluoro-2-methoxy-benzoyl)amino]methyl]phenyl]pyrazole-4-carboxamide] | 10 to 100 nM | 10 to 100 nM | 1000 to 10000 nM | – | 100 to 1000 nM | –
8 | COc1ccccc1C(=O)NCc1ccc(-c2nn(C3CCC(C(=O)N(C)C)CC3)c(N)c2C(N)=O)cc1 (single isomer, unassigned) [Example 57a, 5-amino-1-[4-(dimethylcarbamoyl)cyclohexyl]-3-[4-[[(2-methoxybenzoyl)amino]methyl]phenyl]pyrazole-4-carboxamide] | < 10 nM | < 10 nM | 100 to 1000 nM | – | – | 10 to 100 nM
9 | COc1ccccc1C(=O)NCc1ccc(-c2nn(-c3ccccn3)c(N)c2C(N)=O)cc1 [Example 53, 5-amino-3-[4-[[(2-methoxybenzoyl)amino]methyl]phenyl]-1-(2-pyridyl)pyrazole-4-carboxamide] | < 10 nM | < 10 nM | 100 to 1000 nM | – | 10 to 100 nM | –
10 | COCC(C)n1nc(-c2ccc(CNC(=O)c3ccccc3OC)cc2)c(C(N)=O)c1N (centres unmarked) [Example 143, 5-amino-3-[4-[[(2-methoxybenzoyl)amino]methyl]phenyl]-1-(2-methoxy-1-methyl-ethyl)pyrazole-4-carboxamide] | 10 to 100 nM | < 10 nM | > 10000 nM | – | 100 to 1000 nM | –
11 | COc1ccccc1C(=O)NCC(O)c1ccc(-c2nn(C3CCCC3)c(N)c2C(N)=O)cc1C (centres unmarked) [Example 187, 5-amino-1-cyclopentyl-3-[4-[1-hydroxy-2-[(2-methoxybenzoyl)amino]ethyl]-3-methyl-phenyl]pyrazole-4-carboxamide] | 100 to 1000 nM | 100 to 1000 nM | 1000 to 10000 nM | – | 100 to 1000 nM | –
12 | COc1ccccc1C(=O)NCc1cc(F)c(-c2nn(C3CCCC3)c(N)c2C(N)=O)cc1F [Example 156, 5-amino-1-cyclopentyl-3-[2,5-difluoro-4-[[(2-methoxybenzoyl)amino]methyl]phenyl]pyrazole-4-carboxamide] | < 10 nM | < 10 nM | > 10000 nM | – | 10 to 100 nM | –
13 | COc1ccc(F)cc1C(=O)NCc1cc(F)c(-c2nn(C3CCOC3)c(N)c2C(N)=O)cc1F (centres unmarked) [Example 153, 5-amino-3-[2,5-difluoro-4-[[(5-fluoro-2-methoxy-benzoyl)amino]methyl]phenyl]-1-tetrahydrofuran-3-yl-pyrazole-4-carboxamide] | 10 to 100 nM | < 10 nM | > 10000 nM | – | 100 to 1000 nM | –
14 | COc1ccccc1C(=O)NCc1ccc(-c2nn([C@H]3CCOC3)c(N)c2C(N)=O)cc1 [Example 83a, 5-amino-3-[4-[[(2-methoxybenzoyl)amino]methyl]phenyl]-1-[(3S)-tetrahydrofuran-3-yl]pyrazole-4-carboxamide] | < 10 nM | < 10 nM | 1000 to 10000 nM | – | 100 to 1000 nM | –
15 | COc1ccccc1C(=O)NCc1ccc(-c2nn(C3CCOCC3)c(N)c2C(N)=O)c(F)c1 [Example 99, 5-amino-3-[2-fluoro-4-[[(2-methoxybenzoyl)amino]methyl]phenyl]-1-tetrahydropyran-4-yl-pyrazole-4-carboxamide] | 10 to 100 nM | < 10 nM | > 10000 nM | – | 100 to 1000 nM | –
16 | COc1ccccc1C(=O)NCc1ccc(-c2nn(-c3ccc(F)cc3F)c(N)c2C(N)=O)cc1 [Example 15, 5-Amino-1-(2,4-difluorophenyl)-3-[4-[[(2-methoxybenzoyl)amino]methyl]phenyl]pyrazole-4-carboxamide] | < 10 nM | < 10 nM | 1000 to 10000 nM | – | 10 to 100 nM | –
17 | COc1ccccc1C(=O)NCc1ccc(-c2nn(C3CCOC3)c(N)c2C(N)=O)c(F)c1 (centres unmarked) [Example 100, 5-amino-3-[2-fluoro-4-[[(2-methoxybenzoyl)amino]methyl]phenyl]-1-tetrahydrofuran-3-yl-pyrazole-4-carboxamide] | 10 to 100 nM | < 10 nM | > 10000 nM | – | 100 to 1000 nM | –
18 | COc1ccccc1C(=O)NCc1ccc(-c2nn(C3CCC(C(=O)O)CC3)c(N)c2C(N)=O)cc1 (mixture of isomers) [Example 74, 4-[5-amino-4-carbamoyl-3-[4-[[(2-methoxybenzoyl)amino]methyl]phenyl]pyrazol-1-yl]cyclohexanecarboxylic acid] | < 10 nM | < 10 nM | 100 to 1000 nM | – | 1000 to 10000 nM | –
19 | COc1ccccc1C(=O)NCc1ccc(-c2nn(C3CCOCC3F)c(N)c2C(N)=O)cc1 (single isomer, unassigned) [Example 95, 5-amino-1-[3-fluorotetrahydropyran-4-yl]-3-[4-[[(2-methoxybenzoyl)amino]methyl]phenyl]pyrazole-4-carboxamide] | 10 to 100 nM | < 10 nM | 1000 to 10000 nM | – | – | 100 to 1000 nM
20 | COc1ccccc1C(=O)NCc1ccc(-c2nn(C3CN(C)CC3(F)F)c(N)c2C(N)=O)cc1F (centres unmarked) [Example 166, 5-amino-1-(4,4-difluoro-1-methyl-pyrrolidin-3-yl)-3-[3-fluoro-4-[[(2-methoxybenzoyl)amino]methyl]phenyl]pyrazole-4-carboxamide] | 10 to 100 nM | < 10 nM | 1000 to 10000 nM | – | 10 to 100 nM | –
21 | COc1ccccc1C(=O)NCc1ccc(-c2nn(C3CC(C)(C)OC3(C)C)c(N)c2C(N)=O)cc1 (centres unmarked) [Example 82, 5-amino-3-[4-[[(2-methoxybenzoyl)amino]methyl]phenyl]-1-(2,2,5,5-tetramethyltetrahydrofuran-3-yl)pyrazole-4-carboxamide] | 10 to 100 nM | 10 to 100 nM | 1000 to 10000 nM | – | 1000 to 10000 nM | –
22 | CCn1nc(-c2ccc(CNC(=O)c3cc(F)ccc3OC)cc2)c(C(N)=O)c1N [Example 195, 5-amino-1-ethyl-3-[4-[[(5-fluoro-2-methoxy-benzoyl)amino]methyl]phenyl]pyrazole-4-carboxamide] | < 10 nM | < 10 nM | 1000 to 10000 nM | – | 10 to 100 nM | –
23 | COc1ccccc1C(=O)NCc1ccc(-c2nn(C3CCC(C(=O)N(C)C)CC3)c(N)c2C(N)=O)cc1 (single isomer, unassigned) [Example 57b, 5-amino-1-[4-(dimethylcarbamoyl)cyclohexyl]-3-[4-[[(2-methoxybenzoyl)amino]methyl]phenyl]pyrazole-4-carboxamide] | < 10 nM | < 10 nM | 100 to 1000 nM | – | – | 100 to 1000 nM
